This note sets out measurements from EP0171942A1, “Antitumor composition” (Takeda Chemical Industries, Ltd., priority 1984, dated 1986).

For test [1], the system named is Lewis lung carcinoma. The experiment in a line: Antitumor effect test using Lewis lung carcinoma (subcutaneous tumor fragment implant, tumor weight on day 10). The class given is in vivo, mouse. The note with it: oral, once daily for 7 days. How it is done:
The antitumor composition according to the invention was tested for antitumor effect using Lewis lung carcinoma. Thus, each female Fl mouse [C57BL/6 x DBA/2] weighing 18 ± 1 .g was implanted with a tumor fragment about 2 mm^3 in volume subcutaneously into the axillary site using a trocar. Starting from 24 hours after tumor implantation, the above- mentioned compound 4 and uracil were orally administered combinedly in the proportion given below in Table 1 once daily for 7 days, and the antitumor effect was compared with that attained when each of them was administered singly. The sample agent was suspended in a 0.5% solution of gum arabic in physiological saline just before daily administration such that the dose amounted to 0.2 ml/20 g body weight. Ten days after tumor implantation, the tumor was excised and weighed, and the average tumor weight ratio (T/C %) between the dosed group (T, group of 5 animals) and the control group (C, group of 10 animals) was calculated. The daily dose was expressed in terms of number of moles per kilogram of body weight (mM/kg).

Test [2] concerns colon carcinoma 26. The experiment in a line: Antitumor effect test using colon carcinoma 26 (subcutaneous tumor fragment implant, tumor weight on day 10). It counts as in vivo, mouse. The note with it: oral, once a day for 7 days. The method, then:
The antitumor composition according to the invention was further tested for antitumor effect using colon carcinoma 26. Thus, each female F1 mouse [BALB/c x DBA/2] weighing 21 ± 1 g was subcutaneously implanted with a tumor fragment (about 2 mm3) into the axillary site using a trocar. Starting from 24 hours after tumor implantation, the above- mentioned compound 4 and uracil were orally administered combinedly on the proportion given below in Table 2 once a day for 7 days, and the antitumor effect was compared with that attained by single administration of either of them. The test agent was suspended in a 0.5% solution of gum arabic in physiological saline daily just before administration such that the dose amounted to 0.2 ml/20 g body weight. Ten days after tumor implantation, the tumor was excised and weighed, and the average tumor weight ratio (T/C %) between the dosed group (T, group of 5 animals) and the control group (C, group of 20 animals) was calculated. The daily dose was expressed in terms of number of moles per kilogram of body weight (mM/kg).

Where [3] appears, read: compound 4 0.1 mM/kg alone, tumor excised 10 days after implantation.
[4] abbreviates: compound 4 0.2 mM/kg alone, day 10.
The mark [5] stands for this setting: compound 4 0.4 mM/kg alone, day 10.
Where [6] appears, read: compound 4 0.8 mM/kg alone, day 10.

For `CC(C)COC(=O)C1(F)C(=O)NC(=O)NC1O/N=C/c1ccco1` (centres unmarked) [compound 4, Isobutyl 5-fluoro-4-[(E)-furfurylideneaminooxy]-2,6-dioxohexahydropyrimidine-5-carboxylate], the T/C – broadly, the result in the treated group divided by that in the control group, in per cent – worked out at 54% in test [1] (setting [3]); 42% in test [1] (setting [4]); 31% in test [1] (setting [5]); 19% in test [1] (setting [6]); 96% in test [2] (setting [3]); 29% in test [2] (setting [4]). Besides, the T/C in test [2] (setting [5]) is on record as 1%; in test [2] (setting [6]), 0%. In addition, the Tumor weight in test [1] (setting [3]) was 138 mg; in test [1] (setting [4]), 107 mg; in test [1] (setting [5]), 80 mg; in test [1] (setting [6]), 49 mg; in test [2] (setting [3]), 190 mg; in test [2] (setting [4]) it was 57 mg. Moreover, the Tumor weight was determined as 2 mg in test [2] (setting [5]) and 0 mg in test [2] (setting [6]).

`O=c1cc[nH]c(=O)[nH]1` [uracil]: the T/C is given as 125% in test [1] (uracil 0.4 mM/kg alone, day 10); 224% in test [1] (uracil 0.8 mM/kg alone, day 10); 197% in test [1] (uracil 1.6 mM/kg alone, day 10); 169% in test [1] (uracil 3.2 mM/kg alone, day 10); 113% in test [2] (uracil 0.4 mM/kg alone, day 10); 87% in test [2] (uracil 0.8 mM/kg alone, day 10). The T/C in test [2] (uracil 1.6 mM/kg alone, day 10) is 86%; in test [2] (uracil 3.2 mM/kg alone, day 10) it was 98%. Moreover, the Tumor weight in test [1] (uracil 0.4 mM/kg alone, day 10) was found to be 319 mg; in test [1] (uracil 0.8 mM/kg alone, day 10), 572 mg; in test [1] (uracil 1.6 mM/kg alone, day 10) it was 502 mg; in test [1] (uracil 3.2 mM/kg alone, day 10), 432 mg; in test [2] (uracil 0.4 mM/kg alone, day 10) it was 223 mg; in test [2] (uracil 0.8 mM/kg alone, day 10), 173 mg. The Tumor weight in test [2] (uracil 1.6 mM/kg alone, day 10) was 170 mg; in test [2] (uracil 3.2 mM/kg alone, day 10), 194 mg.
